For one compound, Activity and viability results are on record in ChEMBL document CHEMBL4325881, “Facile synthesis of 2-aryl 5-hydroxy benzo[d]oxazoles and their in vitro anti-proliferative effects on various cancer cell lines” (Bioorg Med Chem Lett, 2018).

Experiment [1] deals with HepG2. In words: Cell cycle arrest in human HepG2 cells assessed as accumulation at G2/M phase at 1 uM after 24 hrs by propidium iodide staining based flow cytometric analysis (reference value: 28.79%). Format: functional. (Flow cytometry measures light scatter and fluorescence of single cells or particles in a stream.)
Experiment [2] deals with HepG2. Kind of experiment: Induction of apoptosis in human HepG2 cells assessed as viable cells at 0.5 uM after 48 hrs by annexin V-FITC/propidium iodide staining-based flow cytometry analysis (reference value: 98.14%). It counts as functional. Particulars: HepG2, 48 h, read-out: Activity.
Experiment [3] has as its system HepG2. Kind of experiment: Induction of apoptosis in human HepG2 cells assessed as condensed nuclei at 0.5 to 2.5 uM after 48 hrs by DAPI staining-based fluorescence microscopic analysis. Format: functional, cell-based.
In experiment [4] the test system is HepG2. In words: Induction of apoptosis in human HepG2 cells assessed as mitochondrial polarized cells level at 1 uM after 48 hrs by JC-1 staining based flow cytometric method (reference value: 93.02%). It counts as functional.
Experiment [5] deals with HepG2. In words: Induction of apoptosis in human HepG2 cells assessed as cell shrinkage after 48 hrs by acridine orange/ethidium bromide staining-based fluorescence microscopic analysis. Format: functional.
The subject of experiment [6] is HepG2. In words: Cell cycle arrest in human HepG2 cells assessed as accumulation at G2/M phase at 0.5 uM after 24 hrs by propidium iodide staining based flow cytometric analysis (reference value: 28.79%). It counts as functional.
Experiment [7] concerns HepG2. In words: Induction of ROS accumulation in human HepG2 cells after 48 hrs by DCF-DA staining based fluorescence microscopic analysis. Format: functional, cell-based.
Experiment [8] deals with HepG2. In words: Induction of apoptosis in human HepG2 cells assessed as early apoptotic cells at 2.5 uM after 48 hrs by annexin V-FITC/propidium iodide staining-based flow cytometry analysis (reference value: 0.98%). Format: functional.
The test system of experiment [9] is HepG2. Kind of experiment: Induction of apoptosis in human HepG2 cells assessed as reduction in number of viable cells at 0.5 to 2.5 uM after 48 hrs by inverted phase contrast microscopic analysis. Format: functional, cell-based.
For experiment [10], the system named is HepG2. Kind of experiment: Induction of apoptosis in human HepG2 cells assessed as late apoptotic cells at 2.5 uM after 48 hrs by annexin V-FITC/propidium iodide staining-based flow cytometry analysis (reference value: 0.26%). It counts as functional.
The test system of experiment [11] is HepG2. Kind of experiment: Anticlonogenic activity against human HepG2 cells incubated for 24 hrs followed by fresh media replacement and measured after 12 days by crystal violet staining based assay. Format: functional, cell-based.
For experiment [12], the system named is HepG2. Kind of experiment: Induction of apoptosis in human HepG2 cells assessed as membrane blebbing after 48 hrs by acridine orange/ethidium bromide staining-based fluorescence microscopic analysis. It counts as functional, cell-based.
In experiment [13] the test system is HepG2. In words: Cell cycle arrest in human HepG2 cells assessed as accumulation at sub-G1 phase at 2.5 uM after 24 hrs by propidium iodide staining based flow cytometric analysis (reference value: 1.73%). It counts as functional.

The source made the active and inactive calls. No cut-off for these calls is given here.

As for `O=Cc1c(O)ccc2oc(-c3cccc(Cl)c3)nc12`, the Activity in the experiment with HepG2 [1] was 27.15%; with HepG2 [4] it was 74.54%; in the experiment with HepG2 [5], “Dose-dependent effect”; in the experiment with HepG2 [6], 23.05%; with HepG2 [7], “Dose-dependent effect”; in the experiment on HepG2 [8] it was 56.17%. The Activity in the experiment on HepG2 [10] was 1.64%; in the experiment with HepG2 [11] it was “Dose-dependent effect”; in the experiment with HepG2 [12], “Dose-dependent effect”; in the experiment on HepG2 [13], 13.2%. Also, the viability at 0.5 µM in the experiment on HepG2 [2] worked out at 83.3%. In addition, the result with HepG2 [3] and in the experiment with HepG2 [9] was Active.
